We go through one molecule from patent US9802962B2, “Tricyclic pyrone compounds reduce amyloid beta aggregates” (priority 2013, dated 2017).

One series relates to MC65 neuroblastoma cells. Kind of series: MC65 protection assay. In kind it is cell-based. How it is done: Employing medium-throughput cell-based MC65 protection assay to screen over one hundred TP compounds, seven TP compounds that protect MC65 neuroblastoma cells from death caused by intracellular Aβ have been identified. […] The EC50 values for CP2, TP70, and TP101 are 120, 80, and 70 nM, respectively.

The subject of series [1] is ABCA1 cholesterol transporter gene. As to the kind of experiment: Increase of ABCA1 cholesterol transporter gene. In kind it is cell-based. The text has this: It has been reported that an induction of cholesterol efflux resulting in a reduction of Aβ formation/deposition in vitro and in vivo (Kim, et al., J Alzheimers Dis, 2009, 16:121-131). For additional Detail, see the attached manuscript entitled, “Inhibition of Acyl-CoA: Cholesterol Acyltransferase (ACAT), Overexpression of Cholesterol Transporter Gene, and Protection of Amyloid β (Aβ) Oligomers-Induced Neuronal Cell Death by Tricylic Pyrone Molecules” which is incorporated herein.

A short description of series [2]: Plasma and brain concentrations after i.v. administration in mice. In kind it is in vivo. How it is done:
FIGS. 3A-3B. FIG. 3A. CP2 and TP70 plasma and brain concentrations following i.v. injection in mice (n=3). FIG. 3B. […] The drug concentration was determined using HPLC and mass spectrometry.
HPLC/mass spectrometry were employed to quantify CP2 and TP70 in the plasma and brain after i.v. administration in mice. The CP2 concentration was 200-300 μM in the mouse brain between 0.5 and 2 h following 25 mg/kg i.v. administration (FIG. 3A). Similarly, TP70 concentration reached 190 μM in plasma at 5 min and 160 μM in brain at 2 h following 25 mg/Kg i.v. administration (FIGS. 3A and 3B).

Series [3] can be described thus: Plasma and organ distribution after ip administration in mice. In kind it is in vivo. The following applies: 25 mg/kg ip. On the procedure:
FIG. 4. Concentrations or content of TP70 in the plasma and 7 key organs following ip administration of TP70 (25 mg/kg) in mice (n=3 each data point).
In addition to determination of drug concentrations in plasma and the brain, drug content in other six key organs, the heart, liver, lungs, intestine, and kidneys of mice (male C57BL/6, 3 months, Harlan, n=3 per timepoint) were also assessed in a separate pharmacokinetic (PK) study of TP70 (25 mg/kg, ip,) using HPLC and mass spectrometry.

The nature of series [4]: Plasma concentration after 7 days of TP70 in drinking water, APP/PS1 mice. In kind it is in vivo. The settings on record: after 7 days in drinking water. The text has this: The validated SmartCage™ system that enables automated, objective, quantitative and long-term evaluation of neuropsychological endpoints at the animal's home cages (Flores, et al., IEEE Trans Biomed Eng, 2007, 54:225-233; Xiong, et al., Stroke, 2011, 42:2026-2032; Carter, et al., Nat Neurosci, 2010, 13:1526-1533; Khroyan, et al., Clin Exp Pharmacol Physiol, 2012, 39:614-622) was used to complement other special individual learning and memory tests (Shineman, et al., Alzheimers Res Ther, 2011, 3:28; Hamann, et al., Neuropsychologia, 2002, 40:1187-1195; Aultman, et al., Psychopharmacology (Berl), 2001, 153:353-364; Ashe, K H, J Alzheimers Dis, 2006, 9:123-126). The SmartCage was able to reveal the behavioral phenotypes of a mouse stroke model of middle cerebral artery occlusion (MCAO) (Xiong, et al., Stroke, 2011, 42:2026-2032) and a hypocretin/orexin neuron degeneration model (orexin/ataxin-3) (Xie, et al., J Clin Invest, 2008, 118:2471-2481; Aultman, et al., Psychopharmacology (Berl), 2001, 153:353-364; Hara, et al., Neuron 2001, 30:345-354). […] These validated protocols were applied to PK/PD studies on TP70 in one more AD transgenic model, APP/PS1 mice, which express mutant APPs in combination with mutant PS1. […] Homecage activity and locomotion were assessed on Day 7 after the treatment and the blood samples were collected from each mouse after the assessment of general behavior. […]

Regarding `Cc1cc2c(c(=O)o1)C=C1CCC(C(C)CNCc3ccc(O)cc3)CC1O2` (centres unmarked) [TP70], in the series with MC65 neuroblastoma cells, the “concentration required for cell toxicity protection” value is “submicromolar”. Besides, the “EC50 values (in words)” value with MC65 neuroblastoma cells (protection of MC65 cells from death caused by intracellular Aβ) is “nanomolar range”. The EC50 in the series on MC65 neuroblastoma cells (protection of MC65 cells from death caused by intracellular Aβ, read-out: effective concentrations for 50% cell survival (EC50)) stood at 80 nM. This molecule came in with an EC50 in series [1] of 1100 nM. Further, the brain concentration in series [2] (brain at 2 h, 25 mg/Kg i.v.) is 160 µM. Further, in series [2] (i.v., mice), the CNS penetration result was “good CNS penetration”. The molecule also returned a plasma concentration in series [2] (plasma at 5 min, 25 mg/Kg i.v.) of 190 µM. The “elimination t½” value in series [2] (plasma, i.v., 3-compartment model fit) is 2.5 h. Further, the “distribution in the heart” value in series [3] is listed as “lowest distribution in the heart”. In series [3] (mice), the “distribution in the brain” value is “higher distribution in the brain than in the plasma and all other organs examined, except for kidneys”. Further, in series [3] (two hours post dosing), the “disposition in the kidneys” value is recorded as “highest disposition in the kidneys” and the distribution in intestines result was “low distribution in intestines”. In series [4], the “plasma TP70 concentration” value was 1.7 ± 0.5 mg/L and the “plasma TP70 concentration (equivalent)” value worked out at 4.3 µM.
